Measurements taken from US5925633A, “3-Substituted-4-oxa-1-azabicyclo [3,2,0]heptan-7-one as cysteine protease inhibitors” (Synphar Laboraties, Inc., priority 1996, dated 1999).

Experiments:
[1] = biological target: T1, papain (Carica papaya, UniProt P00784); assay: In vitro assay procedure for papain (inhibition); format: biochemical; conditions: pH 6.5, 10 min incubation at room temperature, substrate N-CBZ-Pro-Phe-Arg-pNA; read-out: IC50 Papain
T1 sequence (P00784 134-345): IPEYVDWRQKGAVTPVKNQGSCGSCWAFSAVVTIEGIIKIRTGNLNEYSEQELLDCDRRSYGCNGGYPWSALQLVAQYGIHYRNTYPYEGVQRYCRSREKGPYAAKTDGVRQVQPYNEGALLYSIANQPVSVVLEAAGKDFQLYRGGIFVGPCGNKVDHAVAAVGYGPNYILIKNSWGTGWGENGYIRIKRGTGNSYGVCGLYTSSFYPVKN
Experimental: To a 170 μl of enzyme-buffer mixture (enzyme: papain, diluted to give 30 mOD/min, buffer: 0.2 M potassium phosphate, 1.0 mM EDTA, 5 mM L-Cysteine, pH 6.5) a 10 μL of inhibitor (dissolved in DMSO) was added. After 10 min of incubation at room temperature, a 20 μl of 10 mM substrate (N-CBZ-Pro-Phe-Arg-pNA, dissolved in DMSO) was added to initiate reaction. Reading is followed up for 3 min at the Thermomax plate reader (absorbance at 405 nm)
A plot of percentage of inhibition vs inhibitor concentration is obtained, and IC50 is determined using a linear regression calculations (concentration of inhibitor which will give 50% inhibition).

[2] = biological target: cathepsin B (Rattus norvegicus, UniProt P00787); assay: In vitro assay procedure for cathepsin B (inhibition); format: biochemical; conditions: rat cathepsin B, pH 5.1, 10 min incubation at room temperature, substrate N-CBZ-Phe-Arg-AMC; read-out: IC50 Cathepsin B
Sequence of cathepsin B (P00787 80-339): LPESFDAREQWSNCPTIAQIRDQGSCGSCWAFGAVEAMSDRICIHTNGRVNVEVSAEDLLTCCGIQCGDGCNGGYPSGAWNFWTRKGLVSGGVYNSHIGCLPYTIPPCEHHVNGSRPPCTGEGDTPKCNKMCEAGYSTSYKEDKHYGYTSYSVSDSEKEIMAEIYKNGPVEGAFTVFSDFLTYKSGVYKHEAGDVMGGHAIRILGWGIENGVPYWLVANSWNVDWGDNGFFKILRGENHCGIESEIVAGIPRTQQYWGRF
Experimental: The compounds of formula I were tested for inhibition of cathepsin B using the known method (A. J. Barret et al., Biochem. J. 1982, 201, 189-198). […] After 10 min of incubation at room temperature, a 20 μl of 5 mM substrate (N-CBZ-Phe-Arg-AMC, dissolved in DMSO) was added to initiate reaction. Reading is followed up for 10 min at the fluoroscan reader (excitation at 380 nm, emission at 460 nm).

**Q.** With `NC(Cc1ccccc1)C(=O)NCC1CN2C(=O)CC2O1` (stereo not drawn) [Example 49] as the compound, how does the IC50 [1] read?
**A.** 0.62 µM

**Q.** And the IC50 [2]?
**A.** 3.08 µM

**Q.** For `O=C(OCC1CN2C(=O)CC2O1)c1ccc(O)c(O)c1` (stereo not drawn) [Example 50], which IC50 [1] is on record?
**A.** 2.5 µM

**Q.** And the IC50 [2]?
**A.** 0.46 µM

**Q.** With `COc1ccc(C(=O)OCC2CN3C(=O)CC3O2)cc1OC` (stereo not drawn) [Example 51] as the compound, how does the IC50 [1] read?
**A.** 0.13 µM

**Q.** What about the IC50 [2] of the same compound?
**A.** 3.3 µM

**Q.** Which IC50 [1] does the source give for `COc1cc(C(=O)OCC2CN3C(=O)CC3O2)cc(OC)c1O` (stereo not drawn) [Example 52] here?
**A.** 0.62 µM

**Q.** And the IC50 [2]?
**A.** 3.1 µM

**Q.** For `Nc1ccc(C(=O)OCC2CN3C(=O)CC3O2)cc1` (stereo not drawn) [Example 53], which IC50 [1] is on record?
**A.** 2.4 µM

**Q.** And the IC50 [2]?
**A.** 3.8 µM

**Q.** What does the source list for `O=C(OCC1CN2C(=O)CC2O1)c1cc(F)c(F)cc1F` (stereo not drawn) [Example 54]?
**A.** IC50 [1]: 0.66 µM; IC50 [2]: 8.3 µM

**Q.** How did the IC50 [1] turn out when `N#Cc1ccc(C(=O)OCC2CN3C(=O)CC3O2)cc1` (stereo not drawn) [Example 55] was run?
**A.** 0.74 µM

**Q.** And the IC50 [2]?
**A.** 3.7 µM

**Q.** What does the source list for `Cc1ccc(S(=O)(=O)NCC2CN3C(=O)CC3O2)cc1` (stereo not drawn) [Example 56]?
**A.** IC50 [1]: 1.76 µM; IC50 [2]: 0.67 µM

**Q.** Which IC50 [1] does the source give for `O=C1CC2OC(CNS(=O)(=O)c3ccc(Cl)cc3)CN12` (stereo not drawn) [Example 57] here?
**A.** 0.63 µM

**Q.** What about the IC50 [2] of the same compound?
**A.** 0.63 µM

**Q.** What does the source list for `O=C(NCC1CN2C(=O)CC2O1)c1ccccc1` (stereo not drawn) [Example 58]?
**A.** IC50 [1]: 0.81 µM; IC50 [2]: 4.1 µM

**Q.** How did the IC50 [1] turn out when `COc1ccc(S(=O)(=O)NCC2CN3C(=O)CC3O2)cc1` (stereo not drawn) [Example 59] was run?
**A.** 3.2 µM

**Q.** And the IC50 [2]?
**A.** 0.64 µM

**Q.** How did the IC50 [1] turn out when `O=C(OCC1CN2C(=O)CC2O1)c1ccccc1` (stereo not drawn) [Example 60] was run?
**A.** 4 µM

**Q.** What about the IC50 [2] of the same compound?
**A.** 4 µM

**Q.** Which IC50 [1] does the source give for `O=C1CC2OC(CS(=O)(=O)c3ccccc3)CN12` (stereo not drawn) [Example 61] here?
**A.** 1.6 µM

**Q.** What about the IC50 [2] of the same compound?
**A.** 1.6 µM

**Q.** For `O=C1CC2OC(C[S+]([O-])Cc3ccccc3)CN12` (stereo not drawn) [Example 62], which IC50 [1] is on record?
**A.** 0.76 µM

**Q.** What about the IC50 [2] of the same compound?
**A.** 8.7 µM

**Q.** What does the source list for `O=C(O)COc1ccc(C(=O)OCC2CN3C(=O)CC3O2)cc1` (stereo not drawn) [Example 63]?
**A.** IC50 [1]: 2.9 µM; IC50 [2]: 2 µM

**Q.** Which IC50 [1] does the source give for `O=C(O)c1ccccc1C(=O)OCC1CN2C(=O)CC2O1` (stereo not drawn) [Example 64] here?
**A.** 16 µM

**Q.** And the IC50 [2]?
**A.** 6.9 µM

**Q.** Which IC50 [1] does the source give for `COc1ccc(C(=O)OCC2CN3C(=O)CC3O2)cc1` (stereo not drawn) [Example 65] here?
**A.** 2 µM

**Q.** What about the IC50 [2] of the same compound?
**A.** 8.9 µM

**Q.** What does the source list for `O=C(OCC1CN2C(=O)CC2O1)c1ccc(F)cc1` (stereo not drawn) [Example 66]?
**A.** IC50 [1]: 2.4 µM; IC50 [2]: 3.8 µM

**Q.** For `O=C(OCC1CN2C(=O)CC2O1)c1ccc(O)cc1` (stereo not drawn) [Example 67], which IC50 [1] is on record?
**A.** 2.4 µM

**Q.** What about the IC50 [2] of the same compound?
**A.** 3.8 µM

**Q.** Which IC50 [1] does the source give for `COc1ccc(C(=O)NCC2CN3C(=O)CC3O2)cc1` (stereo not drawn) [Example 68] here?
**A.** 0.72 µM

**Q.** What about the IC50 [2] of the same compound?
**A.** 3.6 µM

**Q.** `O=C(NC(CO)C(=O)OCC1CN2C(=O)CC2O1)OCc1ccccc1` (stereo not drawn) [Example 69] was tested. Which IC50 [1] did it give?
**A.** 1.5 µM

**Q.** What about the IC50 [2] of the same compound?
**A.** 2.7 µM

**Q.** Which IC50 [1] does the source give for `O=C(CNC(=O)OCc1ccccc1)NCC(=O)OCC1CN2C(=O)CC2O1` (stereo not drawn) [Example 70] here?
**A.** 0.35 µM

**Q.** What about the IC50 [2] of the same compound?
**A.** 6.7 µM

**Q.** How did the IC50 [1] turn out when `O=C(NC(c1ccccc1)C(O)C(=O)OCC1CN2C(=O)CC2O1)c1ccccc1` (stereo not drawn) [Example 71] was run?
**A.** 0.24 µM

**Q.** And the IC50 [2]?
**A.** 0.24 µM

**Q.** For `O=C1CC(OCC2CN3C(=O)CC3O2)N1` (stereo not drawn) [Example 73], which IC50 [1] is on record?
**A.** 2.4 µM

**Q.** What about the IC50 [2] of the same compound?
**A.** 4.7 µM

**Q.** With `O=C(CCCCCCn1ccnn1)NCC1CN2C(=O)CC2O1` (stereo not drawn) [Example 74] as the compound, how does the IC50 [1] read?
**A.** 3.3 µM

**Q.** What about the IC50 [2] of the same compound?
**A.** 6.5 µM

**Q.** Which IC50 [1] does the source give for `O=C(NCC1CN2C(=O)CC2O1)C1CCCCC1` (stereo not drawn) [Example 75] here?
**A.** 3.97 µM

**Q.** What about the IC50 [2] of the same compound?
**A.** 0.36 µM

**Q.** How did the IC50 [1] turn out when `O=C(O)C1CCCCC1C(=O)OCC1CN2C(=O)CC2O1` (stereo not drawn) [Example 76] was run?
**A.** 10.9 µM

**Q.** And the IC50 [2]?
**A.** 0.34 µM
